Square brackets hold non-standard residues; d marks the D form. Peptide text beside a SMILES is read from it. * marks the point of attachment. DOTA = O=C(O)CN1CCN(CC(=O)O)CCN(CC(=O)*)CCN(CC(=O)O)CC1; Gly(N-(3-F-4-Me-benzyl)) = Cc1ccc(CNCC(=O)*)cc1F; Gly(N-3-F-4-Me-benzyl) = Cc1ccc(CNCC(=O)O)cc1F; Bpa = N[C@@H](Cc1ccc(C(=O)c2ccccc2)cc1)C(=O)O; Hydrocinnamoyl(4-Me) = Cc1ccc(CCC(=O)*)cc1; Bip = N[C@@H](Cc1ccc(-c2ccccc2)cc1)C(=O)O; Gly(Nα-CH2(4-Pyr)) = O=C(O)CNCc1ccncc1; d2Nal = N[C@H](Cc1ccc2ccccc2c1)C(=O)O; NBzl(4-I)Gly = O=C(O)CNCc1ccc(I)cc1; d4Pal = N[C@H](Cc1ccncc1)C(=O)O; Cha = N[C@@H](CC1CCCCC1)C(=O)O; X15 = O=C(CNCCc1ccc(I)cc1)*; Octanoyl = CCCCCCCC(=O)*; Api = NC1(C(=O)O)CCNCC1; PEG2 = NCCOCCOCCC(=O)O; Ahx = NCCCCCC(=O)O; azaGly = NNC(=O)O; Sar = CNCC(=O)O
Molecular target: human kisspeptin receptor (Homo sapiens (Human), UniProt Q969F8)
Experiment: Human KISS1R binding assay (membrane competition binding)
Details: 90 min at room temperature; competition with 0.2 nM [125I]-metastin (45-54); Flp-In T-Rex 293 kisspeptin membranes; metal complexes nonradioactive Ga, In, Lu; read-out: hKiSSR Binding Ki (90 min)
Procedure, shortened: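 Membranes from tetracycline-induced (48 h) Flp-In T-Rex 293 cells expressing receptor, 5–10 μg, incubated 90 min at room temperature with 0.2 nM [125I]-metastin (45-54) and competitor (typically 0–10,000 nM) in Tris/Mg/Ca/EGTA/0.1% BSA, pH 7.4. Filtration, washing, counting; Ki by non-linear regression.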

Sequence of human kisspeptin receptor (Q969F8 whole entry): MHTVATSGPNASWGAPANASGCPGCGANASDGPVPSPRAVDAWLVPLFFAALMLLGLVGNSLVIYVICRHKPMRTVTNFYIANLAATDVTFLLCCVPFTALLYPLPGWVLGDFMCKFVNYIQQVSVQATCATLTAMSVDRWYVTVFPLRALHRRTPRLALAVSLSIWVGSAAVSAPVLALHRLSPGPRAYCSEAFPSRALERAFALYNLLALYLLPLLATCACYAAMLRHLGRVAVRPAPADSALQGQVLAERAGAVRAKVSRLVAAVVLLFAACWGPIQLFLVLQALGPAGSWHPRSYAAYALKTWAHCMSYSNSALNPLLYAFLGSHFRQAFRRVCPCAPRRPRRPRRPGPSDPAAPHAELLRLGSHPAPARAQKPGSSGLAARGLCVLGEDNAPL

Ki [nM]	Compound
< 10	CNCC(=O)N1CCC(NC(=O)[C@H](CC(C)C)NC(=O)NNC(=O)[C@H](Cc2ccccc2)NC(=O)[C@@H](NC(=O)[C@H](CC(N)=O)NC(=O)[C@H](CCCCNC(=O)CN2CCN(CC(=O)O)CCN(CC(=O)O)CCN(CC(=O)O)CC2)NC(=O)[C@@H](Cc2ccc(O)cc2)NC(=O)CNCc2ccc(C)c(F)c2)[C@@H](C)O)(C(=O)N[C@H](Cc2c[nH]c3ccccc23)C(N)=O)CC1 [Compound 360] (H-[Gly(N-3-F-4-Me-benzyl)][dY]K(DOTA)NTF[azaGly]L[Api](Sar)[dW]-NH2)
< 10	Cc1ccc(CNCC(=O)N2CCC(NC(=O)[C@H](CC(C)C)NC(=O)NNC(=O)[C@H](Cc3ccccc3)NC(=O)[C@@H](NC(=O)[C@H](CC(N)=O)NC(=O)[C@H](Cc3ccc(-c4ccccc4)cc3)NC(=O)[C@@H](Cc3ccc(O)cc3)NC(=O)CCCCCNC(=O)CN3CCN(CC(=O)O)CCN(CC(=O)O)CCN(CC(=O)O)CC3)[C@@H](C)O)(C(=O)N[C@@H](Cc3c[nH]c4ccccc34)C(N)=O)CC2)cc1F [Compound 363] ({DOTA-Ahx}-[dY][Bip]NTF[azaGly]L[Api](Gly(N-(3-F-4-Me-benzyl)))W-NH2)
< 10	Cc1ccc(CNCC(=O)N2CCC(NC(=O)[C@H](CC(C)C)NC(=O)NNC(=O)[C@H](Cc3ccccc3)NC(=O)[C@@H](NC(=O)[C@H](CC(N)=O)NC(=O)[C@H](Cc3ccc(C(=O)c4ccccc4)cc3)NC(=O)[C@@H](Cc3ccc(O)cc3)NC(=O)CCCCCNC(=O)CN3CCN(CC(=O)O)CCN(CC(=O)O)CCN(CC(=O)O)CC3)[C@@H](C)O)(C(=O)N[C@@H](Cc3c[nH]c4ccccc34)C(N)=O)CC2)cc1F [Compound 364] ({DOTA-Ahx}-[dY][Bpa]NTF[azaGly]L[Api](Gly(N-(3-F-4-Me-benzyl)))W-NH2)
< 10	Cc1ccc(CNCC(=O)N2CCC(NC(=O)[C@H](CC(C)C)NC(=O)NNC(=O)[C@H](Cc3ccccc3)NC(=O)[C@@H](NC(=O)[C@H](CC(N)=O)NC(=O)[C@@H](Cc3ccc4ccccc4c3)NC(=O)[C@@H](Cc3ccc(O)cc3)NC(=O)CNC(=O)CN3CCN(CC(=O)O)CCN(CC(=O)O)CCN(CC(=O)O)CC3)[C@@H](C)O)(C(=O)N[C@@H](Cc3c[nH]c4ccccc34)C(N)=O)CC2)cc1F [Compound 365] ({DOTA}-G[dY][d2Nal]NTF[azaGly]L[Api](Gly(N-(3-F-4-Me-benzyl)))W-NH2)
< 10	Cc1ccc(CNCC(=O)N2CCC(NC(=O)[C@H](CC(C)C)NC(=O)NNC(=O)[C@H](Cc3ccccc3)NC(=O)[C@@H](NC(=O)[C@H](CC(N)=O)NC(=O)[C@@H](Cc3c[nH]c4ccccc34)NC(=O)[C@@H](Cc3ccc(O)cc3)NC(=O)CCCCCNC(=O)CN3CCN(CC(=O)O)CCN(CC(=O)O)CCN(CC(=O)O)CC3)[C@@H](C)O)(C(=O)N[C@@H](Cc3ccc(O)cc3)C(N)=O)CC2)cc1F [Compound 366] ({DOTA-Ahx}-[dY][dW]NTF[azaGly]L[Api](Gly(N-(3-F-4-Me-benzyl)))Y-NH2)
< 10	Cc1ccc(CNCC(=O)N2CCC(NC(=O)[C@H](CC(C)C)NC(=O)NNC(=O)[C@H](Cc3ccccc3)NC(=O)[C@@H](NC(=O)[C@H](CC(N)=O)NC(=O)[C@@H](Cc3ccc4ccccc4c3)NC(=O)[C@@H](Cc3ccc(O)cc3)NC(=O)CCCCCNC(=O)CN3CCN(CC(=O)O)CCN(CC(=O)O)CCN(CC(=O)O)CC3)[C@@H](C)O)(C(=O)N[C@@H](Cc3ccc(O)cc3)C(N)=O)CC2)cc1F [Compound 367] ({DOTA-Ahx}-[dY][d2Nal]NTF[azaGly]L[Api](Gly(N-(3-F-4-Me-benzyl)))Y-NH2)
< 10	Cc1ccc(CNCC(=O)N2CCC(NC(=O)[C@H](CC(C)C)NC(=O)NNC(=O)[C@H](Cc3ccccc3)NC(=O)[C@@H](NC(=O)[C@H](CC(N)=O)NC(=O)[C@@H](Cc3ccncc3)NC(=O)[C@@H](Cc3ccc(O)cc3)NC(=O)CCOCCOCCNC(=O)CN3CCN(CC(=O)O)CCN(CC(=O)O)CCN(CC(=O)O)CC3)[C@@H](C)O)(C(=O)N[C@@H](Cc3c[nH]c4ccccc34)C(N)=O)CC2)cc1F [Compound 368] ({DOTA-PEG2}-[dY][d4Pal]NTF[azaGly]L[Api](Gly(N-(3-F-4-Me-benzyl)))W-NH2)
< 10	CC(C)C[C@H](NC(=O)NNC(=O)[C@H](Cc1ccccc1)NC(=O)[C@@H](NC(=O)[C@H](CC(N)=O)NC(=O)[C@@H](Cc1ccc2ccccc2c1)NC(=O)[C@@H](Cc1ccc(O)cc1)NC(=O)CCCCCNC(=O)CN1CCN(CC(=O)O)CCN(CC(=O)O)CCN(CC(=O)O)CC1)[C@@H](C)O)C(=O)NC1(C(=O)N[C@H](Cc2c[nH]c3ccccc23)C(N)=O)CCN(C(=O)CNCc2ccc(I)cc2)CC1 [Compound 371] ({DOTA-Ahx}-[dY][d2Nal]NTF[azaGly]L[Api](NBzl(4-I)Gly)[dW]-NH2)

The remaining lines, values behind:

Compound	Ki [nM]
CNCC(=O)N1CCC(NC(=O)[C@H](CC(C)C)NC(=O)NNC(=O)[C@H](Cc2ccccc2)NC(=O)[C@@H](NC(=O)[C@H](CC(N)=O)NC(=O)[C@H](Cc2ccc(C(=O)c3ccccc3)cc2)NC(=O)[C@@H](Cc2ccc(O)cc2)NC(=O)CCCCCNC(=O)CN2CCN(CC(=O)O)CCN(CC(=O)O)CCN(CC(=O)O)CC2)[C@@H](C)O)(C(=O)N[C@H](Cc2c[nH]c3ccccc23)C(N)=O)CC1 [Compound 345] ({DOTA-Ahx}-[dY][Bpa]NTF[azaGly]L[Api](Sar)[dW]-NH2)	< 10
CNCC(=O)N1CCC(NC(=O)[C@H](CC(C)C)NC(=O)NNC(=O)[C@H](Cc2ccccc2)NC(=O)[C@@H](NC(=O)[C@H](CC(N)=O)NC(=O)[C@H](Cc2ccc(C(=O)c3ccccc3)cc2)NC(=O)[C@@H](Cc2ccc(O)cc2)NC(=O)CCCCCNC(=O)CN2CCN(CC(=O)O)CCN(CC(=O)O)CCN(CC(=O)O)CC2)[C@@H](C)O)(C(=O)N[C@@H](Cc2c[nH]c3ccccc23)C(N)=O)CC1 [Compound 346] ({DOTA-Ahx}-[dY][Bpa]NTF[azaGly]L[Api](Sar)W-NH2)	< 10
CCCCCCCC(=O)N[C@H](Cc1ccc(O)cc1)C(=O)N[C@H](CCCCNC(=O)CN1CCN(CC(=O)O)CCN(CC(=O)O)CCN(CC(=O)O)CC1)C(=O)N[C@@H](CC(N)=O)C(=O)N[C@H](C(=O)N[C@@H](CC1CCCCC1)C(=O)NNC(=O)N[C@@H](CC(C)C)C(=O)NC1(C(=O)N[C@H](Cc2c[nH]c3ccccc23)C(N)=O)CCN(C(=O)CNC)CC1)[C@@H](C)O [Compound 355] (Octanoyl-[dY][dK](DOTA)NT[Cha][azaGly]L[Api](Sar)[dW]-NH2)	< 10
CNCC(=O)N1CCC(NC(=O)[C@H](CC(C)C)NC(=O)NNC(=O)[C@H](CC2CCCCC2)NC(=O)[C@@H](NC(=O)[C@H](CC(N)=O)NC(=O)[C@H](CCCCNC(=O)CN2CCN(CC(=O)O)CCN(CC(=O)O)CCN(CC(=O)O)CC2)NC(=O)[C@@H](Cc2ccc(O)cc2)NC(=O)CCOCCOCCNC(=O)CCc2ccc(C)cc2)[C@@H](C)O)(C(=O)N[C@H](Cc2c[nH]c3ccccc23)C(N)=O)CC1 [Compound 356] ({Hydrocinnamoyl(4-Me)-PEG2}-[dY]K(DOTA)NT[Cha][azaGly]L[Api](Sar)[dW]-NH2)	< 10
CNCC(=O)N1CCC(NC(=O)[C@H](CC(C)C)NC(=O)NNC(=O)[C@H](Cc2ccccc2)NC(=O)[C@@H](NC(=O)[C@H](CC(N)=O)NC(=O)[C@@H](CCCCNC(=O)CN2CCN(CC(=O)O)CCN(CC(=O)O)CCN(CC(=O)O)CC2)NC(=O)[C@@H](Cc2ccc(O)cc2)NC(=O)CCOCCOCCNC(=O)CCc2ccc(C)cc2)[C@@H](C)O)(C(=O)N[C@H](Cc2c[nH]c3ccccc23)C(N)=O)CC1 [Compound 357] ({Hydrocinnamoyl(4-Me)-PEG2}-[dY][dK](DOTA)NTF[azaGly]L[Api](Sar)[dW]-NH2)	< 10
CNCC(=O)N1CCC(NC(=O)[C@H](CC(C)C)NC(=O)NNC(=O)[C@H](CC2CCCCC2)NC(=O)[C@@H](NC(=O)[C@H](CC(N)=O)NC(=O)[C@@H](CCCCNC(=O)CN2CCN(CC(=O)O)CCN(CC(=O)O)CCN(CC(=O)O)CC2)NC(=O)[C@@H](Cc2ccc(O)cc2)NC(=O)CCOCCOCCNC(=O)CCc2ccc(C)cc2)[C@@H](C)O)(C(=O)N[C@H](Cc2c[nH]c3ccccc23)C(N)=O)CC1 [Compound 358] ({Hydrocinnamoyl(4-Me)-PEG2}-[dY][dK](DOTA)NT[Cha][azaGly]L[Api](Sar)[dW]-NH2)	< 10
CNCC(=O)N1CCC(NC(=O)[C@H](CC(C)C)NC(=O)NNC(=O)[C@H](Cc2ccccc2)NC(=O)[C@@H](NC(=O)[C@H](CC(N)=O)NC(=O)[C@H](CCCCNC(=O)CN2CCN(CC(=O)O)CCN(CC(=O)O)CCN(CC(=O)O)CC2)NC(=O)[C@@H](Cc2ccc(O)cc2)NC(=O)CCOCCOCCNC(=O)CNCc2ccc(C)c(F)c2)[C@@H](C)O)(C(=O)N[C@H](Cc2c[nH]c3ccccc23)C(N)=O)CC1 [Compound 359] (H-[Gly(N-3-F-4-Me-benzyl)][PEG2][dY]K(DOTA)NTF[azaGly]L[Api](Sar)[dW]-NH2)	< 10
CC(C)C[C@H](NC(=O)NNC(=O)[C@H](Cc1ccccc1)NC(=O)[C@@H](NC(=O)[C@H](CC(N)=O)NC(=O)[C@@H](Cc1ccc2ccccc2c1)NC(=O)[C@@H](Cc1ccc(O)cc1)NC(=O)CCCCCNC(=O)CN1CCN(CC(=O)O)CCN(CC(=O)O)CCN(CC(=O)O)CC1)[C@@H](C)O)C(=O)NC1(C(=O)N[C@H](Cc2c[nH]c3ccccc23)C(N)=O)CCN(C(=O)CNCc2ccncc2)CC1 [Compound 370] ({DOTA-Ahx}-[dY][d2Nal]NTF[azaGly]L[Api](Gly(Nα-CH2(4-Pyr)))[dW]-NH2)	> 100
CC(C)C[C@H](NC(=O)NNC(=O)[C@H](Cc1ccccc1)NC(=O)[C@@H](NC(=O)[C@H](CC(N)=O)NC(=O)[C@@H](Cc1ccc2ccccc2c1)NC(=O)[C@@H](Cc1ccc(O)cc1)NC(=O)CCCCCNC(=O)CN1CCN(CC(=O)O)CCN(CC(=O)O)CCN(CC(=O)O)CC1)[C@@H](C)O)C(=O)NC1(C(=O)N[C@H](Cc2c[nH]c3ccccc23)C(N)=O)CCN(C(=O)CNCCc2ccc(I)cc2)CC1 [Compound 373] ({DOTA-Ahx}-[dY][d2Nal]NTF[azaGly]L[Api](X15)[dW]-NH2)	10 to 100
